Here are results for 73 compounds from PubChem BioAssay AID1996.

Values after ≈ are worked out from the molar mass of the structure shown. Values joined by “and” are separate entries in the source; they are usually repeats but may differ in a detail not shown here. Identical values can stand only once.

The conditions of this series: buffer; pH 7.4; 200.0 µM.
As for `CN1CCN(CC/C=C2/c3ccccc3Sc3ccc(S(=O)(=O)N(C)C)cc32)CC1`, the solubility (kinetic) (as a rule, the concentration staying in solution when a stock, usually in DMSO, is diluted into the medium) is over 66.5 µg/mL.

`Cc1ccc(C(=O)OCC(=O)NCCC2=CCCCC2)cc1N` had a kinetic solubility of 21 µg/mL (≈ 66.4 µM).

As to `O=C(CSc1ccc(-c2cccnc2)nn1)N1CCCCC1`, the kinetic solubility is over 47.2 µg/mL.

Compound `c1ccc(N2CCN(Cc3cn4ccccc4n3)CC2)cc1` yielded a solubility (kinetic) of 40.8 µg/mL (≈ 140 µM).

`COc1ccc(CNC(=O)COC(=O)CN2C(=O)C3CC=CCC3C2=O)cc1` (stereo not drawn) registered a kinetic solubility of over 58 µg/mL.

Consider `CCC(C)c1c(O)nc(SCC(=O)N2CCCCC2)[nH]c1=O` (stereo not drawn), for which the kinetic solubility was over 48.8 µg/mL.

In turn, `COc1ccccc1NC(=O)COC(=O)c1ccc(S(=O)(=O)N2CCCCCC2)cc1` gave a kinetic solubility of 2.6 µg/mL (≈ 5.82 µM).

In the case of `CN(Cc1cccnc1)C(=O)CCCc1c[nH]c2ccccc12`, the solubility (kinetic) was determined as 44.5 µg/mL (≈ 145 µM).

`CC(C)CCOc1ccc(C2(C)NC(=O)NC2=O)cc1` (stereo not drawn) returned a kinetic solubility of 38.5 µg/mL (≈ 139 µM).

For `CCOc1ncccc1C(=O)N(CC)CC(=O)NCc1ccc(F)cc1`, the solubility (kinetic) was over 53.9 µg/mL.

In turn, `CN1CCN(C(=O)c2ccc(C(F)(F)F)cc2)CC1.Cl` returned a kinetic solubility of over 46.3 µg/mL.

As for `CC(=O)Nc1cccc(NC(=O)CSc2nnc3ccccn23)c1`, the kinetic solubility is over 51.2 µg/mL.

On to `Cc1cc(C)c(C#N)c(SCCN2CCOCC2)n1`, for which the solubility (kinetic) is over 41.6 µg/mL.

Take `COCCCn1c(=O)c2ccccc2n(Cc2ccc(C)cc2)c1=O`: the solubility (kinetic) stood at 2.1 µg/mL (≈ 6.21 µM).

As for `O=c1[nH]c(=O)n(CCc2ccccc2)c(O)c1C=NC1CC1`, the solubility (kinetic) is 10.3 µg/mL (≈ 34.4 µM).

`COc1ccc(C2CC(=O)C=C(NCc3ccc4c(c3)OCO4)C2)cc1` (stereo not drawn) gave a solubility (kinetic) of 8.5 µg/mL (≈ 24.2 µM).

`COCCCNc1ccc([N+](=O)[O-])cc1C(=O)Nc1cccc(C)n1` returned a solubility (kinetic) of 2.9 µg/mL (≈ 8.42 µM).

`COc1ccc(Cl)cc1NC(=O)Nc1ccccc1SC` displayed a kinetic solubility of under 0.3 µg/mL.

In the case of `CCOC(=O)c1cn2nc(Oc3ccccc3)ccc2n1`, the kinetic solubility was over 42.5 µg/mL.

The compound `Cc1ccc(CNC(=O)c2nccnc2C(=O)O)cc1` showed a kinetic solubility of over 40.7 µg/mL.

Consider `O=C1/C(=C/c2ccc(O)cc2)SC(=S)N1CC1CCCO1` (stereo not drawn), for which the solubility (kinetic) stood at 1.3 µg/mL (≈ 4.04 µM).

Turning to `CC(=O)c1c(C)[nH]c(C(=O)/C(C#N)=C/c2cccc(C)c2)c1C`, the solubility (kinetic) is 39.5 µg/mL (≈ 129 µM).

The compound `COc1ccc(N2C(=O)c3ccccc3S2(=O)=O)cc1` displayed a kinetic solubility of 1.5 µg/mL (≈ 5.18 µM).

As for `Cc1ccc(S(=O)(=O)/N=C(\N)c2ccc(Cl)cc2)cc1`, the solubility (kinetic) is over 46.3 µg/mL.

In turn, `CC1CCN(CCc2nc3cc(NC(=O)C(C)C)ccc3n2C)CC1` came in with a solubility (kinetic) of 36.7 µg/mL (≈ 107 µM).

Take `Cc1ccc2nc3c(nc2c1C)CCCC3`: the solubility (kinetic) was determined as 7.1 µg/mL (≈ 33.4 µM).

In the case of `O=c1c2ccccc2[se]n1-c1ccccc1`, the kinetic solubility is 13.6 µg/mL and 6.6 µg/mL.

Compound `Cc1cc(C)nc(N2CCCC(C(=O)Nc3ccc(F)cc3)C2)n1` (stereo not drawn) showed a kinetic solubility of 1.2 µg/mL (≈ 3.65 µM).

Regarding `Cc1ccn2cc(-c3ccc(Br)cc3)nc2c1`, the solubility (kinetic) is 1.2 µg/mL (≈ 4.18 µM).

Compound `Cc1ccc2c(CN3CC(C)CC(C)C3)cc(=O)oc2c1C` (stereo not drawn) came in with a solubility (kinetic) of 3.3 µg/mL (≈ 11 µM).

`O=C(NC12CC3CC(CC(C3)C1)C2)c1cc(F)c(F)cc1Cl`: the kinetic solubility came out at 0.7 µg/mL (≈ 2.15 µM).

`O=C(NCCCNC(=O)c1ccccc1F)c1ccco1` yielded a solubility (kinetic) of 43.4 µg/mL (≈ 150 µM).

Consider `C=CCNC(=O)/C(C#N)=C/c1ccc(C(=O)O)cc1`, for which the kinetic solubility was over 38.4 µg/mL.

With `CN(CCC#N)C(=O)c1cc2c(Cl)nc3ccccc3c2s1`, the kinetic solubility was determined as 1.1 µg/mL (≈ 3.34 µM).

As to `CC(C)N(Cc1ccccc1)C(=O)CN1C(=O)c2ccccc2C1=O`, the solubility (kinetic) was over 50.5 µg/mL.

The compound `COc1ccccc1OCc1csc(N)n1` displayed a kinetic solubility of over 35.4 µg/mL.

`CS(=O)(=O)N1CCN=C1SCc1ccc(F)cc1` came in with a solubility (kinetic) of over 43.3 µg/mL.

`COc1ccc(C2C(C#N)=C(N)OC3=C2C(=O)CCC3)cc1OC` (stereo not drawn) returned a solubility (kinetic) of over 49 µg/mL.

For the compound `Cc1ccc(NC(=O)c2cnccn2)cc1S(=O)(=O)N1CCCCCC1`, the solubility (kinetic) stood at 5.4 µg/mL (≈ 14.4 µM).

Regarding `CCN(c1ccccc1)S(=O)(=O)c1ccc(C(=O)NCC(=O)Nc2ccc(F)c(F)c2F)cc1`, the solubility (kinetic) was found to be 2.8 µg/mL (≈ 5.7 µM).

For the compound `CC(=O)Nc1ccc(NC(=O)c2cc(=O)c3cc(C)c(C)cc3o2)cc1`, the kinetic solubility was found to be 0.6 µg/mL (≈ 1.71 µM).

As for `COc1ccccc1Nc1nc(NCCO)nc(N)c1[N+](=O)[O-]`, the kinetic solubility was found to be 3.4 µg/mL (≈ 10.6 µM).

Compound `COC(=O)/C(=C\C(=O)c1ccc([N+](=O)[O-])cc1)Nc1ccc(OC)cc1` returned a solubility (kinetic) of under 0.4 µg/mL.

For `Cc1onc(-c2ccccc2)c1CNC(=O)Nc1ccccc1`, the solubility (kinetic) is over 46.1 µg/mL.

The compound `COC(=O)c1cc(C)sc1NC(=O)c1ccco1` had a kinetic solubility of under 0.6 µg/mL.

Compound `C=CCn1c(O)c(C2=c3ccccc3=NC2=O)c2ccccc21` displayed a solubility (kinetic) of under 0.3 µg/mL.

In turn, `O=C(CN1C(=O)c2ccccc2C1=O)Oc1ccc(Cl)cc1` came in with a solubility (kinetic) of 28 µg/mL (≈ 88.7 µM).

In the case of `Cn1c2ccccc2c2cc([N+](=O)[O-])ccc21`, the kinetic solubility is under 0.2 µg/mL.

`COCCCn1c(=O)c2ccccc2n(CC(=O)NC2CCCC2)c1=O` returned a kinetic solubility of over 53.9 µg/mL.

Take `Cc1cccc(C)c1OC(=O)Cc1ccccc1[N+](=O)[O-]`: the kinetic solubility was 1.8 µg/mL (≈ 6.31 µM).

Turning to `CCSc1nnc(NC(=O)c2nc3nc(C)cc(C)n3n2)s1`, the solubility (kinetic) is over 50.3 µg/mL.

`CC(C)(CNCc1ccccc1)NS(=O)(=O)c1ccc(Cl)cc1` gave a solubility (kinetic) of over 52.9 µg/mL.

Compound `Cc1cccc(N2CCN(C(=O)CNC(=O)Cc3ccccc3)CC2)c1C` gave a kinetic solubility of over 54.8 µg/mL.

In turn, `Cc1ccnc(NS(=O)(=O)c2ccc(NS(C)(=O)=O)cc2)n1` displayed a solubility (kinetic) of 47.8 µg/mL (≈ 140 µM).

Take `Cc1cc(-c2ccccc2)n2ncnc2n1`: the solubility (kinetic) is over 31.5 µg/mL.

Consider `O=C(Cc1cccs1)Nc1ccccc1`, for which the solubility (kinetic) was over 32.6 µg/mL.

Take `CC(NS(=O)(=O)c1ccc2c(c1)CC(=O)N2C)c1ccccc1` (stereo not drawn): the solubility (kinetic) was over 49.6 µg/mL.

In turn, `O=C(COc1ccccc1)NCCSCc1ccccc1Cl` displayed a solubility (kinetic) of 14.7 µg/mL (≈ 43.8 µM).

`Cc1ccnc(NC(=O)c2cccc(S(=O)(=O)Nc3ccc(C)cc3C)c2)c1` registered a kinetic solubility of 10.7 µg/mL (≈ 27.1 µM).

The compound `Cc1nc(-c2ccc([N+](=O)[O-])cc2)c(-c2ccccc2)o1` yielded a solubility (kinetic) of 5.1 µg/mL (≈ 18.2 µM).

Turning to `CCCN1C2CCCC1CC(NC(=O)NC13CC4CC(CC(C4)C1)C3)C2` (stereo not drawn), the kinetic solubility was over 53.9 µg/mL.

The compound `CCN=C1S/C(=C\c2cc(Cl)c(OC)c(OC)c2)C(=O)N1CC` displayed a solubility (kinetic) of 0.8 µg/mL (≈ 2.25 µM).

Consider `O=C1NCCn2ccc(=O)cc21`, for which the solubility (kinetic) amounted to 21.6 µg/mL (≈ 132 µM).

As for `COC(=O)c1sc(NC(=O)c2ccco2)c(C#N)c1C`, the kinetic solubility is 3.7 µg/mL (≈ 12.7 µM).

With `O=C(O)CCCC(=O)N1CCOCCOCCOCCOCC1`, the solubility (kinetic) came out at 48.2 µg/mL (≈ 145 µM).

`CC(C)Oc1ccc(N2CC(C(=O)NC3=NCCS3)CC2=O)cc1` (stereo not drawn) gave a solubility (kinetic) of over 52.1 µg/mL.

For `Cn1c(=O)c2[nH]c(SCC(=O)c3ccc(F)cc3)nc2n(C)c1=O`, the solubility (kinetic) was 7.5 µg/mL (≈ 21.5 µM).

With `CC(C)NC(=O)NNC(=O)c1nn(-c2ccc(F)cc2)ccc1=O`, the kinetic solubility is over 50 µg/mL.

As for `Cc1onc(-c2c(F)cccc2Cl)c1C(=O)c1ccccc1O`, the solubility (kinetic) was found to be 2.6 µg/mL (≈ 7.84 µM).

`COc1cc(CNCCNC(=O)c2cccs2)cc(OC)c1OC` displayed a kinetic solubility of 44.1 µg/mL (≈ 126 µM).

In turn, `Cc1nc2ccc(C(=O)Nc3ccc(N(C)C)cc3)cc2s1` gave a solubility (kinetic) of 4.1 µg/mL (≈ 13.2 µM).

The compound `CCn1c(C(=O)NC2CCC(C)CC2)cc2sccc21` (stereo not drawn) displayed a solubility (kinetic) of 0.7 µg/mL (≈ 2.41 µM).

Regarding `CC(=O)c1ccccc1NC(=O)CSc1n[nH]c(=O)n1C1CC1`, the solubility (kinetic) is over 49.9 µg/mL.
